The target in the first test is T1, CFTR (Homo sapiens, UniProt P13569, DEL508-508).
T1 construct: endogenous in cells; host or cells: primary human bronchial epithelial cells, F508del/MF genotype
T1 sequence (P13569 with tags, fused parts or gaps DEL508-508): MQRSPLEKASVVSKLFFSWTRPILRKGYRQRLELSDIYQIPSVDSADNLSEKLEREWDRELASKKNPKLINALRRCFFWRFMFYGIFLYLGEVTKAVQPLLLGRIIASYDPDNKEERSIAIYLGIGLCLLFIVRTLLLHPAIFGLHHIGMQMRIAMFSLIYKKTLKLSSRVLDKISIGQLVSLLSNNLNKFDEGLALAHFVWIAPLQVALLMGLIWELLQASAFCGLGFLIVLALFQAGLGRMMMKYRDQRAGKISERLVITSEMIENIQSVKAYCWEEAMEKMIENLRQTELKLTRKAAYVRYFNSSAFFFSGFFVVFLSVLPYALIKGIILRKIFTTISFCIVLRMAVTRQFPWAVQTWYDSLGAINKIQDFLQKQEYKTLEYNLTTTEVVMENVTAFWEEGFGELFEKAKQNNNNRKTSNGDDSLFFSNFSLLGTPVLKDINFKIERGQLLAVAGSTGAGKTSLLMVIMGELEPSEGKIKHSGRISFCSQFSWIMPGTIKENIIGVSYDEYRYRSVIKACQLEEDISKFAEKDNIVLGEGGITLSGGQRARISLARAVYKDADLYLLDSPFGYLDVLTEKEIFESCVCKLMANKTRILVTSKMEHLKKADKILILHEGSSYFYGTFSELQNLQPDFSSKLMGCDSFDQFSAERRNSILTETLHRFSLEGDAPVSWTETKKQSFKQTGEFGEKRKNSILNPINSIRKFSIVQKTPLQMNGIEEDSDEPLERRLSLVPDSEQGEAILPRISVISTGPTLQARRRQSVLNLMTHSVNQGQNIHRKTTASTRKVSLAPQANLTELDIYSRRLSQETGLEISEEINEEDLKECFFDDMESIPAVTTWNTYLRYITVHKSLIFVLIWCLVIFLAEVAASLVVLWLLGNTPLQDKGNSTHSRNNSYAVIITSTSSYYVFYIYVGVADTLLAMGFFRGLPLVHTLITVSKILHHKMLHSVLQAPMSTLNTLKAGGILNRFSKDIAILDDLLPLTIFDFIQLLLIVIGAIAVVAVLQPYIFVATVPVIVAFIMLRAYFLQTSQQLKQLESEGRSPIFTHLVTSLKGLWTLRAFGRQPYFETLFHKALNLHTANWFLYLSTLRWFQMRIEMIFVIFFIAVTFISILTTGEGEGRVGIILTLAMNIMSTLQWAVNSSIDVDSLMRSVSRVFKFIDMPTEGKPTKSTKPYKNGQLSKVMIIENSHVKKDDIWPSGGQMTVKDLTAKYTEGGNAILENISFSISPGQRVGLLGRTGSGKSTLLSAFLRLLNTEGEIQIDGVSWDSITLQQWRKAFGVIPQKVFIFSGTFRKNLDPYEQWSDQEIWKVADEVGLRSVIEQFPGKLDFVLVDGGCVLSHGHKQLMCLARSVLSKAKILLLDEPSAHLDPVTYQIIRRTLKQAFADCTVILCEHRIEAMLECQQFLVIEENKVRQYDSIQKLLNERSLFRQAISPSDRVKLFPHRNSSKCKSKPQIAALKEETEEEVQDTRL
The test can be described thus: HBE Assay: Ussing chamber assay of CFTR-mediated short-circuit currents in F508del/MF-HBE cells with 1 μM Ivacaftor. Format: cell-based. To be noted: range of concentrations with 1 μM Ivacaftor, 18-24 hours, 20% human serum. The gist of the method:
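F508del/MF-HBE cells at air-liquid interface >14 days were incubated 18-24 h at 37° C with corrector (concentration range or fixed 10 μM) plus 1 μM Ivacaftor in 20% human serum, compounds kept throughout. Ussing chamber, Vhold=0 mV, 37° C, apical amiloride 30 μM; ISC (μA/cm^2) from peak 20 μM forskolin response to steady state after CFTR inhibitor cocktail.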
As a reminder, the EC50 is the concentration giving half of the maximal effect. `COc1c2nc(nc1-c1c(C)cccc1C)NS(=O)(=O)c1cccc(c1)C(=O)N(Cc1ncc(OC(C)C)cn1)[C@H](CC(C)C)CO2` [Compound 348]: the EC50 is less than 1000 nM.

On to `Cc1cccc(C)c1-c1nc2nc(c1F)OC[C@@H](CC(C)(C)C)N(Cc1ncc(OC3CCC3)cn1)C(=O)c1cccc(c1)S(=O)(=O)N2` [Compound 336], for which the EC50 was less than 1000 nM. On the same count and under the same terms, with `Cc1cccc(OC(C)C)c1-c1nc2nc(c1C)OC[C@@H](CC(C)(C)C)N(Cc1cncc(N(C)CC(C)(C)C)n1)C(=O)c1cccc(c1)S(=O)(=O)N2` (atropisomer, axis not shown) [Compound 332] the figure was less than 1000 nM; with `Cc1cccc(C)c1-c1nc2nc(c1C)OC[C@@H](CC1CC1)N(Cc1ncc(OC3CCC3)cn1)C(=O)c1cccc(c1)S(=O)(=O)N2` [Compound 346], less than 1000 nM; with `Cc1cccc(C)c1-c1nc2nc(c1F)OC[C@@H](CC(C)C)N(Cc1ncc(OC(C)C)cn1)C(=O)c1cccc(c1)S(=O)(=O)N2` [Compound 337], less than 1000 nM. As to `COc1c2nc(nc1-c1c(C)cccc1C)NS(=O)(=O)c1cccc(c1)C(=O)N(Cc1ncc(OC3CCC3)cn1)[C@H](CC(C)C)CO2` [Compound 349], the EC50 is less than 1000 nM.

Staying with this test, now noted: single fixed concentration of 10 μM with 1 μM Ivacaftor, 18-24 hours, 20% human serum.
As for `Cc1cccc(C)c1-c1nc2nc(c1F)OC[C@@H](CC1CCC1)N(Cc1ncc(OC(C)C)cn1)C(=O)c1cccc(c1)S(=O)(=O)N2` [Compound 354], the “HBE Activity at 10 μM (%)” value was “+++ (+++ is >60%)”.

Staying with this test, now noted: single fixed concentration of 10 μM, with 1 μM Ivacaftor, 20% human serum.
`Cc1cccc(CC2CCCCC2)c1-c1nc2nc(c1C(F)(F)F)OC[C@@H](CC(C)(C)C)N(Cc1ccc(N3CCOCC3)cn1)C(=O)c1cccc(c1)S(=O)(=O)N2` (atropisomer, axis not shown) [Compound 248]: the “HBE Activity at 10 μM” value is recorded as “+++ (+++ is >600%)”. With `Cc1cccc(CC2CCCC2)c1-c1nc2nc(c1C)OC[C@@H](CC(C)(C)C)NC(=O)c1cccc(c1)S(=O)(=O)N2` (atropisomer, axis not shown) [Compound 225], the “HBE Activity at 10 μM” value is reported as “+++ (+++ is >600%)”.

`Cc1cccc(CC(C)C)c1-c1nc2nc(c1C)OC[C@@H](CC(C)C)N(Cc1cnc(C3CCOCC3)cn1)C(=O)c1cccc(c1)S(=O)(=O)N2` (atropisomer, axis not shown) [Compound 315]: the “HBE Activity at 10 μM” value is “+++ (+++ is >600%)”. For `Cc1cccc(COC(C)C)c1-c1nc2nc(c1C)OC[C@@H](CC(C)(C)C)N(Cc1nccc(N(C)C(C)C)n1)C(=O)c1cccc(c1)S(=O)(=O)N2` (atropisomer, axis not shown) [Compound 230], the “HBE Activity at 10 μM” value is reported as “+++ (+++ is >600%)”. On to `Cc1cccc(CC2CCOCC2)c1-c1nc2nc(c1C)OC[C@@H](CC(C)(C)C)N(Cc1ccc(N3CCOCC3)cn1)C(=O)c1cccc(c1)S(=O)(=O)N2` (atropisomer, axis not shown) [Compound 275], for which the “HBE Activity at 10 μM” value is listed as “+++ (+++ is >600%)”. Still for that read-out and setting: under `Cc1cccc(CC(C)C)c1-c1nc2nc(c1C)OC[C@@H](C(C)C)N(Cc1nccc(N(C)C(C)C)n1)C(=O)c1cccc(c1)S(=O)(=O)N2` (atropisomer, axis not shown) [Compound 232] stands “+++ (+++ is >600%)”.

The same test, now with this note: with 1 μM Ivacaftor, 18-24 hours, 20% human serum.
For the molecule `COCCN(C)c1cnc(CN2C(=O)c3cccc(c3)S(=O)(=O)Nc3nc(c(C)c(-c4c(C)cccc4CC4CCCCC4)n3)OC[C@H]2CC(C)(C)C)cn1` [Compound 278], the EC50 is 1000 to 3000 nM and the “HBE Max Activity” value is “+++ (+++ is >600%)”. For the molecule `Cc1cccc(CC2CCCCC2)c1-c1nc2nc(c1C)OC[C@@H](CC(C)(C)C)N(Cc1ncc(OC(C)C)cn1)C(=O)c1cccc(c1)S(=O)(=O)N2` [Compound 234], the EC50 is less than 1000 nM and the “HBE Max Activity” value is “+++ (+++ is >600%)”. On the same counts, the results for `Cc1cccc(CC2CCCC2)c1-c1nc2nc(c1C)OC[C@@H](CC(C)(C)C)N(Cc1cccc(N(C)C(C)C)n1)C(=O)c1cccc(c1)S(=O)(=O)N2` (atropisomer, axis not shown) [Compound 273] are less than 1000 nM and “+++ (+++ is >600%)”. For `Cc1cccc(CC2CCCCC2)c1-c1nc2nc(c1C)OC[C@@H](CC(C)(C)C)N(Cc1cccc(N(C)CC(C)(C)C)n1)C(=O)c1cccc(c1)S(=O)(=O)N2` (atropisomer, axis not shown) [Compound 259], in that order: less than 1000 nM and “+++ (+++ is >600%)”.

In the case of `COCCN(C)c1cnc(CN2C(=O)c3cccc(c3)S(=O)(=O)Nc3nc(c(C)c(-c4c(C)cccc4CC(C)C)n3)OC[C@H]2CC(C)(C)C)nc1` (atropisomer, axis not shown) [Compound 294], the EC50 is less than 1000 nM and the “HBE Max Activity” value was “+++ (+++ is >600%)”. For the molecule `Cc1cccc(C(C)C)c1-c1nc2nc(c1C)OC[C@@H](CC(C)(C)C)N(Cc1ccc(N3CCOCC3)cn1)C(=O)c1cccc(c1)S(=O)(=O)N2` (atropisomer, axis not shown) [Compound 299], the concentration giving a half-maximal response (EC50) is less than 1000 nM and the “HBE Max Activity” value is “+++ (+++ is >600%)”.

Consider `Cc1cccc(CC2CCOCC2)c1-c1nc2nc(c1C)OC[C@@H](CC(C)(C)C)N(Cc1ncc(N3CCOCC3)cn1)C(=O)c1cccc(c1)S(=O)(=O)N2` (single isomer, unassigned) [Compound 218], for which the EC50 was less than 1000 nM and the “HBE Max Activity” value was “+++ (+++ is >600%)”. Turning to `Cc1cccc(CC(C)C)c1-c1nc2nc(c1C)OC[C@@H](CC(C)(C)C)N(Cc1ccc(N3CCOCC3)cn1)C(=O)c1cccc(c1)S(=O)(=O)N2` (atropisomer, axis not shown) [Compound 298], the EC50 is less than 1000 nM and the “HBE Max Activity” value is given as “+++ (+++ is >600%)”. In the case of `Cc1cccc(CC2CCCC2)c1-c1nc2nc(c1C)OC[C@@H](CC(C)(C)C)N(Cc1ncc(CC(C)C)cn1)C(=O)c1cccc(c1)S(=O)(=O)N2` (atropisomer, axis not shown) [Compound 268], the EC50 was less than 1000 nM and the “HBE Max Activity” value is on record as “+++ (+++ is >600%)”. On to `Cc1cccc(CC2CCCCC2)c1-c1nc2nc(c1C)OC[C@@H](CC(C)(C)C)N(Cc1ncc(N(C)C)cn1)C(=O)c1cccc(c1)S(=O)(=O)N2` (atropisomer, axis not shown) [Compound 303], for which the EC50 is less than 1000 nM and the “HBE Max Activity” value was “+++ (+++ is >600%)”. On the same counts, the results for `Cc1cccc(CC(C)C)c1-c1nc2nc(c1C)OC[C@@H](CC(C)(C)C)N(Cc1ncc(CC(C)C)cn1)C(=O)c1cccc(c1)S(=O)(=O)N2` (atropisomer, axis not shown) [Compound 264] are less than 1000 nM and “+++ (+++ is >600%)”. For `Cc1cccc(CC(C)C)c1-c1nc2nc(c1C)OC[C@@H](CC(C)(C)C)N(Cc1cccc(N(C)C(C)C)n1)C(=O)c1cccc(c1)S(=O)(=O)N2` (atropisomer, axis not shown) [Compound 235], in that order: less than 1000 nM and “+++ (+++ is >600%)”. For `Cc1cccc(CC2CCCCC2)c1-c1nc2nc(c1C)OC[C@@H](CC(C)(C)C)N(Cc1ncc(N3CCOCC3)cn1)C(=O)c1cccc(c1)S(=O)(=O)N2` (atropisomer, axis not shown) [Compound 305], in that order: less than 1000 nM and “+++ (+++ is >600%)”. On to `Cc1cccc(CC2CCCCC2)c1-c1nc2nc(c1C)OC[C@@H](CC(C)(C)C)N(Cc1cccc(N(C)C(C)C)n1)C(=O)c1cccc(c1)S(=O)(=O)N2` (atropisomer, axis not shown) [Compound 255], for which the EC50 is less than 1000 nM and the “HBE Max Activity” value is “+++ (+++ is >600%)”.

On to `Cc1cccc(C)c1-c1nc2nc(c1C)OC[C@@H](CC(C)(C)C)N(Cc1ccc(N3CCCCC3)cn1)C(=O)c1cccc(c1)S(=O)(=O)N2` [Compound 85], for which the EC50 is less than 1000 nM and the “HBE Max Activity” value is recorded as “+++ (+++ is >600%)”. On the same counts, the results for `Cc1cccc(C(C)C)c1-c1nc2nc(c1C)OC[C@@H](CC(C)(C)C)N(Cc1ncc(N3CCOCC3)cn1)C(=O)c1cccc(c1)S(=O)(=O)N2` (single isomer, unassigned) [Compound 209] are less than 1000 nM and “+++ (+++ is >600%)”. For `Cc1cccc(CC2CCCCC2)c1-c1nc2nc(c1C)OC[C@@H](CC(C)(C)C)NC(=O)c1cccc(c1)S(=O)(=O)N2` (atropisomer, axis not shown) [Compound 312], in that order: less than 1000 nM and “++ (++ is 30-60%)”. For `Cc1cccc(CC(C)C)c1-c1nc2nc(c1C)OC[C@@H](CC(C)(C)C)N(Cc1ncc(N3CCC(C)(C)C3)cn1)C(=O)c1cccc(c1)S(=O)(=O)N2` (atropisomer, axis not shown) [Compound 243], in that order: 1000 to 3000 nM and “+++ (+++ is >600%)”. For `Cc1cccc(CC2CCCCC2)c1-c1nc2nc(c1C)OC[C@@H](CC(C)(C)C)N(Cc1ncc(N3CCC(C)(C)CC3)cn1)C(=O)c1cccc(c1)S(=O)(=O)N2` (atropisomer, axis not shown) [Compound 260], the EC50 is less than 1000 nM and the “HBE Max Activity” value is given as “+++ (+++ is >600%)”. For `Cc1cccc(CC(C)C)c1-c1nc2nc(c1C)OC[C@@H](CC(C)(C)C)N(Cc1cnc(C3CCOCC3)cn1)C(=O)c1cccc(c1)S(=O)(=O)N2` (atropisomer, axis not shown) [Compound 313], the EC50 is less than 1000 nM and the “HBE Max Activity” value is “+++ (+++ is >600%)”.

For `Cc1cccc(C)c1-c1nc2nc(c1C)OC[C@@H](CC(C)C)N(Cc1ncc(OC(C)C)cn1)C(=O)c1cccc(c1)S(=O)(=O)N2` [Compound 193], the EC50 was less than 1000 nM and the “HBE Max Activity” value was “+++ (+++ is >600%)”.

The same test, now with this note: with 1 μM Ivacaftor, 18-24 hours, 20% human serum, compared to known Vertex corrector with 18 μM Tezacaftor and 1 μM Ivacaftor, read-out: HBE Max activity (%).
In the case of `COc1c2nc(nc1-c1c(C)cccc1C)NS(=O)(=O)c1cccc(c1)C(=O)N(Cc1ncc(OC(C)C)cn1)[C@H](CC(C)C)CO2` [Compound 348], the Emax is more than 60%. The same measure, in the same setting: under `Cc1cccc(C)c1-c1nc2nc(c1F)OC[C@@H](CC(C)(C)C)N(Cc1ncc(OC3CCC3)cn1)C(=O)c1cccc(c1)S(=O)(=O)N2` [Compound 336] stands more than 60%; under `Cc1cccc(OC(C)C)c1-c1nc2nc(c1C)OC[C@@H](CC(C)(C)C)N(Cc1cncc(N(C)CC(C)(C)C)n1)C(=O)c1cccc(c1)S(=O)(=O)N2` (atropisomer, axis not shown) [Compound 332], more than 60%. Same read-out and setting: under `Cc1cccc(C)c1-c1nc2nc(c1C)OC[C@@H](CC1CC1)N(Cc1ncc(OC3CCC3)cn1)C(=O)c1cccc(c1)S(=O)(=O)N2` [Compound 346] stands more than 60%; under `Cc1cccc(C)c1-c1nc2nc(c1F)OC[C@@H](CC(C)C)N(Cc1ncc(OC(C)C)cn1)C(=O)c1cccc(c1)S(=O)(=O)N2` [Compound 337], more than 60%; under `COc1c2nc(nc1-c1c(C)cccc1C)NS(=O)(=O)c1cccc(c1)C(=O)N(Cc1ncc(OC3CCC3)cn1)[C@H](CC(C)C)CO2` [Compound 349], more than 60%.

These data come from patent US20230374038A1, “MODULATORS OF CYSTIC FIBROSIS TRANSMEMBRANE CONDUCTANCE REGULATOR” (VERTEX PHARMACEUTICALS INCORPORATED, priority 2020, published 2023).
